Assay results taken from US20250275949A1, “USE OF DITERPENE COMPOUND DERIVATIVE OR SALT THEREOF IN PREPARATION OF MEDICINE FOR PREVENTING AND TREATING ATOPIC DERMATITIS” (SUZHOU PHARMAVAN CO., LTD, priority 2022, published 2025).

Columns and labels:
Type in all cases: in vivo, BALB/c mice
[1] = tested on: OXA-induced AD model; assay: OXA-induced AD mouse model, Example 2 (Compound 1 cream; lesion score, ear thickness, immunohistochemistry, Western Blot); conditions: for right ear thickness on day 24 / skin lesion score on day 24: 50 μL per ear once a day, day 7 to day 23; for right ear thickness on day 24 / skin lesion score on day 24 / ICAM-1 positive rate, immunohistochemistry / Ki67 positive rate, immunohistochemistry / VCAM-1 positive rate, immunohistochemistry: vs vehicle group
Source text: Experimental animals involved in the following embodiments were SPF-grade BALB/c mice (≥7 weeks old, female). The scoring criteria for skin lesions involved in the following embodiments are shown in Table 1 and the histopathological scoring criteria are shown in Table 2. [table] The day of grouping was defined as day 0. Mice were randomly divided into 5 groups: blank control (NC) group, model (OXA) group, blank cream (vehicle) group, 0.1%-Compound 1 cream group, and 0.5%-Compound 1 cream group; the NC group had 5 animals, the other groups each had 10 animals. Each group except NC group was treated for modeling AD. Day 0:0.8%-OXA solution was applied to the auricle of both ears at 20 μL per ear. Day 7, 10, 12, 14, 17, 19, 21, and 23:0.4%-OXA solution was applied to the auricle of both ears at 20 μL per ear. Each group except NC group and OXA group was administrated. The administration started from day 7 to day 23, and the mice was administrated once a day at the auricle of both ears by 50 μL per ear (100 μL per mouse). The condition of the animals was observed during the experimental period, and the auricle was scored for skin lesions (see Table 1 for skin lesion scoring criteria), and the thickness of the ears was measured. The mice were euthanized, and their ear tissues were retained for immunohistochemistry and Western Blot analysis. [table]

[2] = tested on: MC903-induced AD model; assay: MC903-induced AD mouse model, itching symptoms (scratching times), Example 4; conditions: cream 0.1% and 0.5%, right auricle, day 3 to day 10; video on the day before the experiment ended
Source text: Experimental animals involved in the following embodiments were SPF-grade BALB/c mice (≥7 weeks old, female). This example explores the preventive and therapeutic effect of a small-molecule diterpene derivative to itching symptoms on the MC903-induced AD model, including the following: • The day of grouping was defined as day 0. Mice were randomly divided into 5 groups: blank control (NC) group, model (MC903) group, blank cream (vehicle) group, 0.1%-Compound 1 cream group, and 0.5%-Compound 1 cream group; each group had 10 animals. Each group except NC group was treated for modeling AD. From day 0 to day 10:0.1 nmol/μL-MC903solution was applied to the auricle of right ear at 20 μL once a day. Each group except NC group and MC903 group was administrated. The administration started from day 3 to day 10, and the mice was administrated once a day at the auricle of right ear by 50 μL. The administration method for modeling and the design of subject dosage are same as Example 3. On the day before the experiment ended, the mice were videoed, and the mice of AD model were evaluated through the video about their scratching times in 15 min.

[3] = tested on: OXA-induced AD model; assay: OXA-induced AD mouse model, Example 1 (eight compounds in castor oil); conditions: 0.1% in castor oil, day 7 to day 23; for OXA-induced AD-like lesions (conclusion of Example 1): auricle
Source text: Experimental animals involved in the following embodiments were SPF-grade BALB/c mice (≥7 weeks old, female). The scoring criteria for skin lesions involved in the following embodiments are shown in Table 1 and the histopathological scoring criteria are shown in Table 2. [table] The day of grouping was defined as day 0. Mice were randomly divided into 11 groups: blank control (NC) group, model (OXA) group, blank castor oil (vehicle) group, Compound 1 administration group, Compound 2 administration group, Compound 3 administration group, Compound 4 administration group, Compound 5 administration group, Compound 6 administration group, Compound 7 administration group, and Compound 8 administration 10 group, with 5 animals in each group. Each group except NC group was treated for modeling AD. Day 0:0.8%-OXA solution was applied to the auricle of both ears at 20 μL per ear. Day 7, 10, 12, 14, 17, 19, 21, and 23:0.4%-OXA solution was applied to the auricle of both ears at 20 μL per ear. Each group except NC group and OXA group was administrated. The administration started from day 7 to day 23, and the mice was administrated once a day at the auricle of both ears by 50 μL per ear (100 μL per mouse). The condition of the animals was observed during the experimental period, and the auricle was scored for skin lesions (see Table 1 for skin lesion scoring criteria), and the thickness of the ears was measured. [table]

[4] = tested on: MC903-induced AD model; assay: MC903-induced AD mouse model, Example 3 (ear swelling, skin thickness, mast cells, histopathology, serum IgE ELISA)
Source text: Experimental animals involved in the following embodiments were SPF-grade BALB/c mice (≥7 weeks old, female). The scoring criteria for skin lesions involved in the following embodiments are shown in Table 1 and the histopathological scoring criteria are shown in Table 2. [table] This example explores the preventive and therapeutic effect of a small-molecule diterpene derivative on the MC903-induced AD model, including the following: • The day of grouping was defined as day 0. Mice were randomly divided into 5 groups: blank control (NC) group, model (MC903) group, blank cream (vehicle) group, 0.1%-Compound 1 cream group, and 0.5%-Compound 1 cream group; each group had 10 animals. Each group except NC group was treated for modeling AD. From day 0 to day 10:0.1 nmol/μL-MC903 solution was applied to the auricle of right ear at 20 μL once a day. Each group except NC group and MC903 group was administrated. The administration started from day 3 to day 10, and the mice was administrated once a day at the auricle of right ear by 50 μL. The condition of the animals was observed during the experimental period. The mice were euthanized, and their ear tissues were retained for the degree of ear swelling measurement, skin thickness measurement, mast cell counting and immunohistochemical analysis, and their blood tissues were retained for ELISA. [table]

[5] = cream, 0.1% and 0.5% groups together
[6] = cream, 0.1% and 0.5%, ear tissue
[7] = 50 μL per ear on auricle once a day, compared with vehicle group
[8] = cream 0.1% and 0.5%, right auricle, day 3 to day 10

C=C1C(=O)[C@@]23[C@H](O)C[C@@H]4C(C)(C)c5nc(N(C)C)sc5C[C@@]4(C)[C@@H]2CC[C@@H]1[C@H]3O [Compound 1]
right ear thickness on day 24 ([1]; 0.1% cream): statistically different from the vehicle group | skin lesion score on day 24 ([1]; 0.1% cream): statistically different from the vehicle group | ICAM-1 positive rate, immunohistochemistry ([1]; 0.1% cream, ear tissue): reduced | Ki67 positive rate, immunohistochemistry ([1]; 0.1% cream, ear tissue): reduced (statistically different) | VCAM-1 positive rate, immunohistochemistry ([1]; 0.1% cream, ear tissue): reduced | right ear thickness on day 24 ([1]; 0.5% cream): statistically different from the vehicle group | skin lesion score on day 24 ([1]; 0.5% cream): statistically different from the vehicle group | ICAM-1 positive rate, immunohistochemistry ([1]; 0.5% cream, ear tissue): reduced | Ki67 positive rate, immunohistochemistry ([1]; 0.5% cream, ear tissue): reduced (statistically different) | VCAM-1 positive rate, immunohistochemistry ([1]; 0.5% cream, ear tissue): reduced | OXA-induced AD-like lesions (conclusion of Example 2) ([1]; cream, 0.1% and 0.5%): significantly ameliorate the OXA-induced AD-like lesions | ear thickness (conclusion) [1, 5]: effectively ameliorate the ear thickness | epidermal overproliferation (Ki67) and aberrant expression of adhesion factor (ICAM-1, VCAM-1), conclusion [1, 5]: effectively inhibit the epidermal overproliferation and aberrant expression of adhesion factor | skin lesion score (conclusion) [1, 5]: effectively reduce the skin lesion score | ICAM-1 protein expression (gray value), Western Blot [1, 6]: consistent with the immunohistochemical results | VCAM-1 protein expression (gray value), Western Blot [1, 6]: consistent with the immunohistochemical results | scratching times in 15 min (extent of itching) [2]: effectively ameliorates the extent of itching | skin lesion score on day 24 [3, 7]: effectively reduce the skin lesion score | OXA-induced AD-like lesions (conclusion of Example 1) [3]: significantly ameliorate the OXA-induced AD-like lesions | degree of ear swelling ([4]; cream 0.1% and 0.5%, 50 μL on right auricle once a day, day 3 to day 10): effectively ameliorate the ear swelling | dermal thickness (ear histological scanning) [4, 8]: effectively ameliorate the thickening of epidermis and dermis | epidermal thickness (ear histological scanning) [4, 8]: effectively ameliorate the thickening of epidermis and dermis | histopathology scores (total, parakeratosis, epidermal defect, dermal papilla thickening, capillary proliferation, inflammatory infiltration), HE staining [4, 8]: effectively ameliorates the extent of MC903-induced AD-like lesions | mast cell counting (toluidine blue staining of ear tissue sections) [4, 8]: significantly reduces the number of mast cells | serum IgE concentration (ELISA) [4, 8]: inhibits the serum IgE concentration | MC903-induced AD-like lesions (conclusion of Example 3) ([4]; cream, 0.1% and 0.5%): significantly ameliorate the MC903-induced AD-like lesions

C=C1C(=O)[C@@]23[C@H](O)C[C@@H]4C(C)(C)c5nc(N)sc5C[C@@]4(C)[C@@H]2CC[C@@H]1[C@H]3O [Compound 2]
skin lesion score on day 24 [3, 7]: do not exert a significant anti-atopic dermatitis effect

C=C1C(=O)[C@@]23[C@H](O)C[C@@H]4C(C)(C)c5nc(NC)sc5C[C@@]4(C)[C@@H]2CC[C@@H]1[C@H]3O [Compound 3]
skin lesion score on day 24 [3, 7]: do not exert a significant anti-atopic dermatitis effect

C=C1C(=O)[C@@]23[C@H](O)C[C@@H]4C(C)(C)c5nc(NCC)sc5C[C@@]4(C)[C@@H]2CC[C@@H]1[C@H]3O [Compound 4]
skin lesion score on day 24 [3, 7]: do not exert a significant anti-atopic dermatitis effect

C=C1C(=O)[C@@]23[C@H](O)C[C@@H]4C(C)(C)c5nc(N(CC)CC)sc5C[C@@]4(C)[C@@H]2CC[C@@H]1[C@H]3O [Compound 5]
skin lesion score on day 24 [3, 7]: effectively reduce the skin lesion score | OXA-induced AD-like lesions (conclusion of Example 1) [3]: significantly ameliorate the OXA-induced AD-like lesions

C=C1C(=O)[C@@]23[C@H](O)C[C@@H]4C(C)(C)c5nc(N(CCC)CCC)sc5C[C@@]4(C)[C@@H]2CC[C@@H]1[C@H]3O [Compound 6]
skin lesion score on day 24 [3, 7]: effectively reduce the skin lesion score | OXA-induced AD-like lesions (conclusion of Example 1) [3]: significantly ameliorate the OXA-induced AD-like lesions

C=C1C(=O)[C@@]23[C@H](O)C[C@@H]4C(C)(C)c5nc(N(C(C)C)C(C)C)sc5C[C@@]4(C)[C@@H]2CC[C@@H]1[C@H]3O [Compound 7]
skin lesion score on day 24 [3, 7]: effectively reduce the skin lesion score | OXA-induced AD-like lesions (conclusion of Example 1) [3]: significantly ameliorate the OXA-induced AD-like lesions

C=C1C(=O)[C@@]23[C@H](O)C[C@@H]4C(C)(C)c5nc(Nc6ccncc6)sc5C[C@@]4(C)[C@@H]2CC[C@@H]1[C@H]3O [Compound 8]
right ear thickness on day 24 [3, 7]: Vehicle group>Compound 8 group | skin lesion score on day 24 [3, 7]: do not exert a significant anti-atopic dermatitis effect
